Results taken from ChEMBL document CHEMBL4354880, “Synthesis and Structure-Activity Relationships of Arylsulfonamides as AIMP2-DX2 Inhibitors for the Development of a Novel Anticancer Therapy” (J Med Chem, 2020).
Active and inactive are the calls of the source. No cut-off for these calls is given here.

Assays:
A549 [1] = assay: cells; conditions: Homo sapiens, A549, 72 h
Description: Antiproliferative activity against human A549 cells measured after 72 hrs by MTT assay

NCI-H460 [2] = assay: Antitumor activity against human H460 cells xenografted in BALB/c SLC nu/nu mouse assessed as reduction in tumor weight at 50 mg/kg, ip administered every other day for 15 days and measured post-last dose; type: functional, organism-based
[3] = Toxicity in human H460 cells xenografted BALB/c SLC nu/nu mouse assessed as change in body weight at 50 mg/kg, ip administered every other day for 15 days and measured 4 times during compound dosing; conditions: in vivo, 360 h
[4] = Cytotoxicity against human WI26 cells assessed as reduction in cell viability measured after 72 hrs by MTT assay
A549 [5] = assay: Antiproliferative activity against human A549 cells stably expressing AIMP2 DX2 isoform measured after 72 hrs by MTT assay; type: functional, cell-based
NCI-H460 [6] = assay: Antitumor activity against human H460 cells xenografted in BALB/c SLC nu/nu mouse assessed as reduction in tumor volume at 50 mg/kg, ip administered every other day for 15 days and measured 4 times during compound dosing; type: functional, organism-based
A549 [7] = conditions: Homo sapiens, 5 uM
Description: Inhibition of LgBiT-tagged PRKACA-SmBiT-tagged PRKAR2A (unknown origin) protein-protein interaction expressed in human A549 cells at 5 uM measured after 4 hrs by luminescence assay

NCI-H460 [8] = assay: Cytotoxicity against human NCI-H460 3D spheroid cells assessed as reduction in cell viability measured after 72 hrs by Celltiter-glo assay
[9] = target: T1, Aminoacyl tRNA synthase complex-interacting multifunctional protein 2 (Homo sapiens, UniProt Q13155); assay: Inhibition of nanoluciferase-tagged AIMP2 (unknown origin) expressed in human A549 cells measured after 4 hrs by luminescence assay; type: cell-based
T1 sequence (Q13155 whole entry): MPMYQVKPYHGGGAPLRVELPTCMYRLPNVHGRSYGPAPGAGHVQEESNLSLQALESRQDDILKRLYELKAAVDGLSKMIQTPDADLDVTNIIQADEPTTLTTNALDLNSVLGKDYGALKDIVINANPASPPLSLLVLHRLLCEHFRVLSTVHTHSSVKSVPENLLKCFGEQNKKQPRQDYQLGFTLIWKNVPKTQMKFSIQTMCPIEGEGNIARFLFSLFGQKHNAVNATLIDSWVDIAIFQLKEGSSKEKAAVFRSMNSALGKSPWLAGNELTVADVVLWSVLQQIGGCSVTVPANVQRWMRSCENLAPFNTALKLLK

[10] = target: Aminoacyl tRNA synthase complex-interacting multifunctional protein 2 (Homo sapiens, UniProt Q13155); assay: Inhibition of nanoluciferase-tagged AIMP2 DX2 isoform (unknown origin) expressed in human A549 cells measured after 4 hrs by luminescence assay; type: cell-based

| EC50 (A549 [1]) | IC50 [9] | IC50 [10] | Compound | Activity (NCI-H460 [2]) | Activity [3] | EC50 [4] | Activity (A549 [5]) | Activity (NCI-H460 [6]) | inhibition (A549 [7]) | Activity (NCI-H460 [8]) |
| --- | --- | --- | --- | --- | --- | --- | --- | --- | --- | --- |
| 1.2 µM |  |  | COc1ccc(-c2csc(NC(=O)[C@H](Cc3c[nH]c4ccccc34)NS(=O)(=O)c3ccc(C)cc3)n2)cc1 | Active | Non-Toxic | > 100 µM | Active | Active | inactive | Dose-dependent effect |
| 14.2 µM |  |  | Cc1ccc(S(=O)(=O)N[C@@H](Cc2c[nH]c3ccccc23)C(=O)Nc2ccc(N3CCOCC3)cc2)cc1 |  |  | > 100 µM |  |  |  |  |
| 40.8 µM | > 100 µM | 40.1 µM | Cc1ccc(S(=O)(=O)N[C@@H](CC(C)C)C(=O)N2CCOCCOCCOCC2)cc1 |  |  | > 100 µM |  |  |  |  |
